Experimental data reported in ChEMBL document CHEMBL1201861, “Genomics of Drug Sensitity in Cancer screening data, Wellcome Trust Sanger Institute”.

Experiments:
Test in all cases: cells
[1] = tested on: HT-1376; type: functional, cell-based, Homo sapiens; conditions: Homo sapiens, HT-1376
Description: SANGER: Inhibition of human HT-1376 cell growth in a cell viability assay.

[2] = tested on: NCI-H226; type: functional, cell-based, Homo sapiens; conditions: Homo sapiens, NCI-H226;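 note: cell viability read-out used to gauge growth inhibition of the cells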
Description: SANGER: Inhibition of human NCI-H226 cell growth in a cell viability assay.

[3] = tested on: DBTRG-05MG; type: functional, cell-based, Homo sapiens; conditions: Homo sapiens, DBTRG-05MG;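 note: cell viability assay measuring growth inhibition of human DBTRG-05MG cells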
Description: SANGER: Inhibition of human DBTRG-05MG cell growth in a cell viability assay.

[4] = tested on: OS-RC-2; type: functional, cell-based, Homo sapiens; conditions: Homo sapiens, OS-RC-2;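 note: growth inhibition of human OS-RC-2 cells, measured by a cell viability assay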
Description: SANGER: Inhibition of human OS-RC-2 cell growth in a cell viability assay.

[5] = tested on: MHH-ES-1; type: functional, cell-based, Homo sapiens; conditions: Homo sapiens, MHH-ES-1;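 note: cell growth inhibition measured by a cell viability assay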
Description: SANGER: Inhibition of human MHH-ES-1 cell growth in a cell viability assay.

[6] = tested on: HCC1569; type: functional, cell-based, Homo sapiens; conditions: Homo sapiens, HCC1569;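 note: growth inhibition of human HCC1569 cells, read out with a cell viability assay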
Description: SANGER: Inhibition of human HCC1569 cell growth in a cell viability assay.

[7] = tested on: VMRC-RCZ; type: functional, cell-based, Homo sapiens; conditions: Homo sapiens, VMRC-RCZ;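 note: growth inhibition measured with a cell viability assay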
Description: SANGER: Inhibition of human VMRC-RCZ cell growth in a cell viability assay.

[8] = tested on: KU812 cell line; type: functional, cell-based, Homo sapiens; conditions: Homo sapiens, KU812;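 note: growth inhibition of KU812 cells, read out with a cell viability assay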
Description: SANGER: Inhibition of human KU812 cell growth in a cell viability assay.

[9] = tested on: MPP-89; type: functional, cell-based, Homo sapiens; conditions: Homo sapiens, MPP-89;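 note: growth inhibition of human MPP-89 cells, read out with a cell viability assay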
Description: SANGER: Inhibition of human MPP-89 cell growth in a cell viability assay.

[10] = tested on: SK-MEL-24; type: functional, cell-based, Homo sapiens; conditions: Homo sapiens, SK-MEL-24;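 note: growth inhibition read out by a cell viability assay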
Description: SANGER: Inhibition of human SK-MEL-24 cell growth in a cell viability assay.

[11] = tested on: Calu-3; type: functional, cell-based, Homo sapiens; conditions: Homo sapiens, Calu-3;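 note: growth inhibition of human Calu-3 cells, determined with a cell viability assay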
Description: SANGER: Inhibition of human Calu-3 cell growth in a cell viability assay.

[12] = tested on: HOS; type: functional, cell-based, Homo sapiens; conditions: Homo sapiens, HOS;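 note: growth inhibition of human HOS cells, read out with a cell viability assay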
Description: SANGER: Inhibition of human HOS cell growth in a cell viability assay.

[13] = tested on: NCI-H1581; type: functional, cell-based, Homo sapiens; conditions: Homo sapiens, NCI-H1581;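 note: cell growth inhibition read out by a viability assay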
Description: SANGER: Inhibition of human NCI-H1581 cell growth in a cell viability assay.

[14] = tested on: SK-N-DZ; type: functional, cell-based, Homo sapiens; conditions: Homo sapiens, SK-N-DZ;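 note: growth inhibition of the cancer cell line, read out through a viability assay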
Description: SANGER: Inhibition of human SK-N-DZ cell growth in a cell viability assay.

[15] = tested on: A-375; type: functional, cell-based, Homo sapiens; conditions: Homo sapiens, A-375;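 note: growth inhibition of A375 cells, read out with a cell viability assay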
Description: SANGER: Inhibition of human A375 cell growth in a cell viability assay.

[16] = tested on: NCI-H2342; type: functional, cell-based, Homo sapiens; conditions: Homo sapiens, NCI-H2342;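 note: growth inhibition of the cancer cell line, determined with a cell viability assay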
Description: SANGER: Inhibition of human NCI-H2342 cell growth in a cell viability assay.

[17] = tested on: MSTO-211H; type: functional, cell-based, Homo sapiens; conditions: Homo sapiens, MSTO-211H
Description: SANGER: Inhibition of human MSTO-211H cell growth in a cell viability assay.

[18] = tested on: HCE-4; type: functional, cell-based, Homo sapiens; conditions: Homo sapiens, HCE-4;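 note: cell viability assay measuring inhibition of growth in the human HCE-4 cell line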
Description: SANGER: Inhibition of human HCE-4 cell growth in a cell viability assay.

[19] = tested on: LS-411N; type: functional, cell-based, Homo sapiens; conditions: Homo sapiens, LS-411N
[20] = tested on: NCI-H2087; type: functional, cell-based, Homo sapiens; conditions: Homo sapiens, NCI-H2087;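 note: growth inhibition determined with a cell viability readout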
Description: SANGER: Inhibition of human NCI-H2087 cell growth in a cell viability assay.

[21] = tested on: NCI-H720; type: functional, cell-based, Homo sapiens; conditions: Homo sapiens, NCI-H720;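 note: growth inhibition of human NCI-H720 cells determined by a cell viability assay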
Description: SANGER: Inhibition of human NCI-H720 cell growth in a cell viability assay.

[22] = tested on: 639-V; type: functional, cell-based, Homo sapiens; conditions: Homo sapiens, 639-V;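 note: growth inhibition of 639-V cells, read out with a cell viability assay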
Description: SANGER: Inhibition of human 639-V cell growth in a cell viability assay.

[23] = tested on: SJRH30; type: functional, cell-based, Homo sapiens; conditions: Homo sapiens, SJRH30;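 note: growth inhibition of human SJRH30 cells, read out with a cell viability assay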
Description: SANGER: Inhibition of human SJRH30 cell growth in a cell viability assay.

[24] = tested on: KOSC-2; type: functional, cell-based, Homo sapiens; conditions: Homo sapiens, KOSC-2;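 note: growth inhibition of KOSC-2 cells, read out by a cell viability assay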
Description: SANGER: Inhibition of human KOSC-2 cell growth in a cell viability assay.

[25] = tested on: HuO9; type: functional, cell-based, Homo sapiens; conditions: Homo sapiens, HuO9;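 note: growth inhibition of HuO9 cells, read out with a cell viability assay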
Description: SANGER: Inhibition of human HuO9 cell growth in a cell viability assay.

[26] = tested on: MC116; type: functional, cell-based, Homo sapiens; conditions: Homo sapiens, MC116;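 note: growth inhibition of MC116 cells, read out with a cell viability assay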
Description: SANGER: Inhibition of human MC116 cell growth in a cell viability assay.

[27] = tested on: LB996-RCC; type: functional, cell-based, Homo sapiens; conditions: Homo sapiens, LB996-RCC
Description: SANGER: Inhibition of human LB996-RCC cell growth in a cell viability assay.

[28] = tested on: HSC-2; type: functional, cell-based, Homo sapiens; conditions: Homo sapiens, HSC-2;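 note: growth inhibition of human HSC-2 cells, read out by a cell viability assay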
Description: SANGER: Inhibition of human HSC-2 cell growth in a cell viability assay.

[29] = tested on: CWR22R; type: functional, cell-based, Homo sapiens; conditions: Homo sapiens, 22Rv1;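 note: growth inhibition of 22Rv1 cells, read out with a cell viability assay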
Description: SANGER: Inhibition of human 22RV1 cell growth in a cell viability assay.

[30] = tested on: OVCAR-8; type: functional, cell-based, Homo sapiens; conditions: Homo sapiens, OVCAR-8;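 note: growth inhibition of human OVCAR-8 cells, read out by a cell viability assay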
Description: SANGER: Inhibition of human OVCAR-8 cell growth in a cell viability assay.

[31] = tested on: A2780; type: functional, cell-based, Homo sapiens; conditions: Homo sapiens, A2780;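 note: growth inhibition of A2780 cells, read out with a cell viability assay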
Description: SANGER: Inhibition of human A2780 cell growth in a cell viability assay.

[32] = tested on: LNCaP-Clone-FGC; type: functional, cell-based, Homo sapiens; conditions: Homo sapiens, LNCaP-Clone-FGC
Description: SANGER: Inhibition of human LNCaP-Clone-FGC cell growth in a cell viability assay.

[33] = tested on: CAL-62; type: functional, cell-based, Homo sapiens; conditions: Homo sapiens, CAL-62;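 note: growth inhibition of CAL-62 cells, read out with a cell viability assay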
Description: SANGER: Inhibition of human CAL-62 cell growth in a cell viability assay.

[34] = tested on: UMUC3; type: functional, cell-based, Homo sapiens; conditions: Homo sapiens, UMUC3;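 note: growth inhibition of human UM-UC-3 cells, read out with a cell viability assay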
Description: SANGER: Inhibition of human UM-UC-3 cell growth in a cell viability assay.

[35] = tested on: HT-3; type: functional, cell-based, Homo sapiens; conditions: Homo sapiens, HT-3;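 note: growth inhibition measured with a cell viability readout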
Description: SANGER: Inhibition of human HT-3 cell growth in a cell viability assay.

[36] = tested on: ME-180; type: functional, cell-based, Homo sapiens; conditions: Homo sapiens, ME-180;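 note: cell viability assay measuring growth inhibition of ME-180 cells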
Description: SANGER: Inhibition of human ME-180 cell growth in a cell viability assay.

[37] = tested on: OE19; type: functional, cell-based, Homo sapiens; conditions: Homo sapiens, OE19;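 note: growth inhibition of OE19 cells, measured through a cell viability read-out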
Description: SANGER: Inhibition of human OE19 cell growth in a cell viability assay.

[38] = tested on: MZ2-MEL; type: functional, cell-based, Homo sapiens; conditions: Homo sapiens, MZ2-MEL;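 note: growth inhibition of MZ2-MEL cells read out with a cell viability assay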
Description: SANGER: Inhibition of human MZ2-MEL cell growth in a cell viability assay.

[39] = tested on: PANC-03-27; type: functional, cell-based, Homo sapiens; conditions: Homo sapiens, PANC-03-27
Description: SANGER: Inhibition of human PANC-03-27 cell growth in a cell viability assay.

[40] = tested on: Detroit 562; type: functional, cell-based, Homo sapiens; conditions: Homo sapiens, Detroit 562;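 note: growth inhibition of human Detroit 562 cells, read out by a cell viability assay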
Description: SANGER: Inhibition of human Detroit562 cell growth in a cell viability assay.

[41] = tested on: SK-MEL3; type: functional, cell-based, Homo sapiens, SK-MEL-3; conditions: Homo sapiens, SK-MEL3;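 note: growth inhibition of human SK-MEL-3 cells, read out with a cell viability assay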
Description: SANGER: Inhibition of human SK-MEL-3 cell growth in a cell viability assay.

[42] = tested on: DMS-273; type: functional, cell-based, Homo sapiens; conditions: Homo sapiens, DMS-273
Description: SANGER: Inhibition of human DMS-273 cell growth in a cell viability assay.

[43] = tested on: LXF-289 cell line; type: functional, cell-based, Homo sapiens; conditions: Homo sapiens, LXF-289
Description: SANGER: Inhibition of human LXF-289 cell growth in a cell viability assay.

[44] = tested on: D-542MG; type: functional, cell-based, Homo sapiens; conditions: Homo sapiens, D-542MG
Description: SANGER: Inhibition of human D-542MG cell growth in a cell viability assay.

Which results are given for `CCN(CC)CCCCNc1ncc2cc(-c3cc(OC)cc(OC)c3)c(NC(=O)NC(C)(C)C)nc2n1` [PD-173074]?
IC50 [1]: > 2 µM; IC50 [2]: > 2 µM; IC50 [3]: > 2 µM; IC50 [4]: > 2 µM; IC50 [5]: > 2 µM; IC50 [6]: > 2 µM; IC50 [7]: > 2 µM; IC50 [8]: > 2 µM; IC50 [9]: > 2 µM; IC50 [10]: > 2 µM; IC50 [11]: > 2 µM; IC50 [12]: > 2 µM; IC50 [13]: 0.0123 µM; IC50 [14]: > 2 µM; IC50 [15]: > 2 µM; IC50 [16]: > 2 µM; IC50 [17]: 1.47 µM; IC50 [18]: > 2 µM; IC50 [19]: > 2 µM; IC50 [20]: > 2 µM; IC50 [21]: > 2 µM; IC50 [22]: > 2 µM; IC50 [23]: > 2 µM; IC50 [24]: > 2 µM; IC50 [25]: > 2 µM; IC50 [26]: > 2 µM; IC50 [27]: > 2 µM; IC50 [28]: > 2 µM; IC50 [29]: > 2 µM; IC50 [30]: > 2 µM; IC50 [31]: > 2 µM; IC50 [32]: > 2 µM; IC50 [33]: > 2 µM; IC50 [34]: > 2 µM; IC50 [35]: > 2 µM; IC50 [36]: > 2 µM; IC50 [37]: > 2 µM; IC50 [38]: > 2 µM; IC50 [39]: > 2 µM; IC50 [40]: > 2 µM; IC50 [41]: > 2 µM; IC50 [42]: > 2 µM; IC50 [43]: > 2 µM

What does the source list for `CC(C)c1ccccc1Cc1cc(C(=O)Nc2ccc(S(=O)(=O)c3ccccc3C(C)(C)C)cc2)c(O)c(O)c1O`?
IC50 [1]: 1.9 µM; IC50 [2]: 2.46 µM; IC50 [3]: 1.46 µM; IC50 [4]: 0.737 µM; IC50 [5]: 0.5 µM; IC50 [6]: 4.88 µM; IC50 [7]: 7.75 µM; IC50 [9]: 1.27 µM; IC50 [10]: 0.41 µM; IC50 [11]: 5.4 µM; IC50 [12]: 0.0847 µM; IC50 [13]: 0.0676 µM; IC50 [14]: 0.207 µM; IC50 [15]: 0.0888 µM; IC50 [16]: 0.267 µM; IC50 [17]: 0.789 µM; IC50 [18]: 0.469 µM; IC50 [19]: 1.24 µM; IC50 [20]: 0.575 µM; IC50 [22]: 0.521 µM; IC50 [23]: 0.137 µM; IC50 [24]: 0.496 µM; IC50 [25]: 0.727 µM; IC50 [27]: 0.25 µM; IC50 [28]: 0.664 µM; IC50 [29]: 1.03 µM; IC50 [30]: 0.471 µM; IC50 [31]: 0.218 µM; IC50 [32]: 0.535 µM; IC50 [33]: 0.308 µM; IC50 [34]: 0.163 µM; IC50 [35]: 0.192 µM; IC50 [37]: 5.98 µM; IC50 [38]: 0.212 µM; IC50 [39]: 0.474 µM; IC50 [40]: 1.27 µM; IC50 [41]: 0.693 µM; IC50 [44]: 0.462 µM; IC50 [42]: 0.1 µM; IC50 [43]: 0.0728 µM
